Residues, ends and D or L forms follow the SMILES beside them. *: point of attachment. NH(2-Me-nonan-4R-yl) = CCCCC[C@H](CC(C)C)N*; NHCH(iBu)2 = CC(C)CC(CC(C)C)N*; X1 = CCCCC[C@@H](CC(C)C)N*; X2 = CCCC=C[C@H](CC(C)C)N*; Boc = CC(C)(C)OC(=O)*; Piv = CC(C)(C)C(=O)*; Ms = CS(=O)(=O)*
System: Swiss 3T3 cells
Assay: Procedure C: Mitogenesis Inhibition (GRP-stimulated 3H-thymidine uptake)
Format: cell-based, murine
Details: GRP plus antagonist, 48 hours
Method: The activity of the peptide derivatives of the present invention as GRP antagonists was determined in competitive binding assays with a radio-active GRP derivative. Swiss 3T3 fibroblasts were used in these tests as the source of GRP receptor. Because these cells respond to GRP binding with a rapid increase in DNA synthesis, compounds that bind to the GRP receptor can also be tested for their ability to stimulate DNA synthesis. New DNA synthesis is one of the early steps in cell division and is widely accepted as a measure of mitogenicity or cell growth. […] Compounds which block DNA synthesis are mitogenic antagonists. […] Swiss 3T3 cells were grown in monolayer culture in 24 -well plates (Costar) in serum free DMEM for 48 hours, at which time the GRP or a GRP homologue. The antagonist and 23 nM ^3 H-thymidine were added. After an additional 48 hours, the cell monolayer was washed twice with PBS, and the cells were then removed with 1 ml 10x trypsin containing 5 mM EDTA. The cells were harvested with a Skatron filter apparatus, and the filters counted in a scintillation counter.

Q: With `CCCCC[C@H](CC(C)C)NC(=O)[C@H](Cc1c[nH]cn1)NC(=O)CNC(=O)[C@@H](NC(=O)[C@H](C)NC(=O)[C@H](Cc1c[nH]c2ccccc12)NC(=O)[C@H](Cc1c[nH]cn1)NC(=O)C(C)(C)C)C(C)C` [4(R)] (Piv-HWAVGH-{NH(2-Me-nonan-4R-yl)}) as the compound, how does the IC50 read?
A: 2 nM

Target: T1, GRP receptor (Mus musculus, UniProt P21729)
T1 construct: endogenous in cells; host or cells: Swiss 3T3 fibroblasts (intact monolayers)
Assay: Procedure A: Binding Inhibition Studies (competition with [3H-Phe15]GRP15-27)
Design: species or system murine
Details: Swiss 3T3 cells; 3 nM [3H-Phe15]GRP15-27; 60 minutes at 15° C.
Method: The activity of the peptide derivatives of the present invention as GRP antagonists was determined in competitive binding assays with a radio-active GRP derivative. Swiss 3T3 fibroblasts were used in these tests as the source of GRP receptor. Because these cells respond to GRP binding with a rapid increase in DNA synthesis, compounds that bind to the GRP receptor can also be tested for their ability to stimulate DNA synthesis. New DNA synthesis is one of the early steps in cell division and is widely accepted as a measure of mitogenicity or cell growth. […] Compounds which block DNA synthesis are mitogenic antagonists.
Swiss 3T3 cells, obtained from Dr. K. Brown (Institute of Animal Physiology, Cambridge, U.K.), were grown to confluency in Costar 12 -well plates containing DMEM (Gibco) supplemented with 10% fetal bovine serum, 2 mM glutamine and 1% penicillin-streptomycin. The cells were washed twice with binding buffer [1:1 DMEM:Waymouths MB752/1 medium, plus 1 mg/ml BSA (Fraction V, Calbiochem)]. The antagonist was dissolved in 10 mM HCl, and diluted to the appropriate concentration in binding buffer. The antagonist was then added to the cells, followed by [^3 H Phe^15 ]GRP15-27 at a final concentration of 3 nM. After 60 minutes incubation at 15° C., the supernatant liquid was removed and the cell monolayer rinsed four times with washing buffer (150 mM NaCl, 20 mM Na2 HPO4, 5mM KCl, 1.8 mM KH2 PO4, 1 mg/ml BSA) The cells were then lysed with 1 ml/well of lysis buffer (1% Triton X-100, 0.1% BSA), and the solution was aspirated into scintillation vials for counting. Each data point was collected in triplicate.

T1 sequence (P21729 whole entry): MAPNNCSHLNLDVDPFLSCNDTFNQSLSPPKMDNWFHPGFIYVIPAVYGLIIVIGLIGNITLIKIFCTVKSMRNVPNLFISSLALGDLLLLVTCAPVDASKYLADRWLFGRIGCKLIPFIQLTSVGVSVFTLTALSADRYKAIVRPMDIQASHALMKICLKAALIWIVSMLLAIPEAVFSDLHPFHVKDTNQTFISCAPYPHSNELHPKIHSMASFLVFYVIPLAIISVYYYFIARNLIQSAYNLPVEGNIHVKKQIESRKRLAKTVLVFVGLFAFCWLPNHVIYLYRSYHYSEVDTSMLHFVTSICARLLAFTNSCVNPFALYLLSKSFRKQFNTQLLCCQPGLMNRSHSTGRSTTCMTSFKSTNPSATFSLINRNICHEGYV

Q: How did the IC50 turn out when `CCCCC[C@H](CC(C)C)NC(=O)[C@H](Cc1c[nH]cn1)NC(=O)CNC(=O)[C@@H](NC(=O)[C@H](C)NC(=O)[C@H](Cc1c[nH]c2ccccc12)NC(=O)[C@H](Cc1c[nH]cn1)NC(C)=O)C(C)C` [1(R)] (Ac-HWAVGH-{NH(2-Me-nonan-4R-yl)}) was run?
A: 2 nM

Q: How did the IC50 turn out when `CCCCC[C@@H](CC(C)C)NC(=O)[C@H](Cc1c[nH]cn1)NC(=O)CNC(=O)[C@@H](NC(=O)[C@H](C)NC(=O)[C@H](Cc1c[nH]c2ccccc12)NC(=O)[C@H](Cc1c[nH]cn1)NC(C)=O)C(C)C` [1(S)] (Ac-HWAVGH-X1) was run?
A: 17 nM

Q: For `CCCC=C[C@H](CC(C)C)NC(=O)[C@H](Cc1c[nH]cn1)NC(=O)CNC(=O)[C@@H](NC(=O)[C@H](C)NC(=O)[C@H](Cc1c[nH]c2ccccc12)NC(=O)[C@H](Cc1c[nH]cn1)NC(C)=O)C(C)C` [2(S)] (Ac-HWAVGH-X2), which IC50 is on record?
A: 11 nM

Q: Which IC50 does the source give for `CCCCC[C@H](CC(C)C)NC(=O)[C@H](Cc1c[nH]cn1)NC(=O)CNC(=O)[C@@H](NC(=O)[C@H](C)NC(=O)[C@H](Cc1c[nH]c2ccccc12)NC(=O)[C@H](Cc1c[nH]cn1)NS(C)(=O)=O)C(C)C` [3(R)] (Ms-HWAVGH-{NH(2-Me-nonan-4R-yl)}) here?
A: 15 nM

Q: How did the IC50 turn out when `CCCCC[C@H](CC(C)C)NC(=O)[C@H](Cc1c[nH]cn1)NC(=O)CNC(=O)[C@@H](NC(=O)[C@H](C)NC(=O)[C@H](Cc1c[nH]c2ccccc12)NC(=O)[C@H](Cc1c[nH]cn1)NC(=O)C(C)(C)C)C(C)C` [4(R)] (Piv-HWAVGH-{NH(2-Me-nonan-4R-yl)}) was run?
A: 3 nM

Q: `CCCCC[C@H](CC(C)C)NC(=O)[C@H](Cc1c[nH]cn1)NC(=O)CNC(=O)[C@@H](NC(=O)[C@H](C)NC(=O)[C@H](Cc1c[nH]c2ccccc12)NC(=O)[C@H](Cc1c[nH]cn1)NC(=O)OC(C)(C)C)C(C)C` [5(R)] (Boc-HWAVGH-{NH(2-Me-nonan-4R-yl)}) was tested. Which IC50 did it give?
A: 2 nM

Q: How did the IC50 turn out when `CC(=O)N[C@@H](Cc1c[nH]cn1)C(=O)N[C@@H](Cc1c[nH]c2ccccc12)C(=O)N[C@@H](C)C(=O)N[C@H](C(=O)NCC(=O)N[C@@H](Cc1c[nH]cn1)C(=O)NC(CC(C)C)CC(C)C)C(C)C` [Example 6] (Ac-HWAVGH-{NHCH(iBu)2}) was run?
A: 2 nM
